Results on eleven compounds are retold here after ChEMBL document CHEMBL1201862, “PubChem BioAssay data set” (2004).

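Dose response: 5 concentrations. Exposure: 48 h. Format: 96-well plates. Endpoint: linear interpolation; highest concentration if not reached. GI50 marks 50% less growth.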 The source made the active and inactive calls. Cut-off read from the data, not from the text of the source: active = GI50 up to about 1.1 µM and inactive = higher. Some results are limits rather than exact numbers.

Among the test systems are CAKI-1; COLO 205; HCC 2998; HCT-15; HL-60; KM12; M14; MDA-MB-231; MOLT-4; NCI-H522; NCI/ADR-RES; SF-539; SK-MEL-28; SN12C; SNB-19; SNB-75; SR; SW-620; T47D; UACC-62.
Experiment in all cases: growth of human tumour cells (NCI), 48 h

With `Oc1ccc(/C=N/c2ccccc2O)cc1`, the GI50 in the test with CAKI-1 was 68.1 µM (inactive); in the test with COLO 205, 30.2 µM (inactive); in the test with HCC 2998, 45.3 µM (inactive); in the test with HCT-15, 21.3 µM; with HL-60, 12.7 µM (inactive); in the test on KM12, 75.3 µM (inactive). Further, the GI50 in the test with M14 is 35.5 µM (inactive); with MDA-MB-231 it was 51.1 µM (inactive); in the test on MOLT-4, 51.2 µM (inactive); in the test on NCI-H522, 29.3 µM (inactive); in the test with NCI/ADR-RES, 75 µM (inactive); in the test with SF-539 it was 71.3 µM (inactive). The GI50 in the test with SK-MEL-28 was > 100 µM (inactive); with SN12C, > 100 µM (inactive); in the test with SNB-19, > 100 µM (inactive); with SNB-75, > 100 µM (inactive); in the test with SR, 48.6 µM (inactive); in the test on SW-620, 31.3 µM (inactive). In addition, the GI50 in the test with T47D was 73.5 µM (inactive); in the test with UACC-62, 37.5 µM (inactive).

For `c1ccc(-c2ccc(-c3ccc(C4=NCCN4)cc3)o2)cc1`, the GI50 with CAKI-1 was 2.34 µM (inactive); with COLO 205 it was 1.73 µM (inactive); in the test with HCC 2998 it was 1.35 µM (inactive); in the test on HCT-15, 1.87 µM; in the test on HL-60, 1.79 µM (inactive); in the test on KM12, 1.92 µM (inactive). Further, the GI50 was 1.68 µM (inactive) in the test with M14; 2 µM (inactive) in the test with MDA-MB-231; 1.82 µM (inactive) in the test with MOLT-4; 2.02 µM (inactive) in the test with NCI-H522; 4.3 µM (inactive) with NCI/ADR-RES; 2.11 µM (inactive) with SF-539. In addition, the GI50 in the test on SK-MEL-28 is 1.8 µM (inactive); with SN12C it was 2.99 µM (inactive); in the test with SNB-19 it was 2.4 µM (inactive); in the test on SNB-75, 2.38 µM (inactive); with SR, 0.773 µM (active); in the test with SW-620 it was 2 µM (inactive). Further, the GI50 was 2.65 µM (inactive) in the test on T47D and 1.77 µM (inactive) in the test with UACC-62.

Regarding `CCOC(=O)c1c(-c2ccc(OC)cc2)c(C#N)c(=S)n(C2OC(COC(C)=O)C(OC(C)=O)C(OC(C)=O)C2OC(C)=O)c1C` (stereo unspecified), the GI50 with CAKI-1 is > 100 µM (inactive); with COLO 205, > 100 µM (inactive); with HCC 2998 it was > 100 µM (inactive); in the test on HCT-15, above 100 µM; in the test with HL-60 it was 75.7 µM (inactive); in the test on KM12 it was > 100 µM (inactive). Also, the GI50 in the test on M14 is > 100 µM (inactive); in the test with MDA-MB-231, > 100 µM (inactive); in the test with MOLT-4 it was 61.1 µM (inactive); in the test on NCI-H522, 70.8 µM (inactive); in the test with NCI/ADR-RES, > 100 µM (inactive); in the test with SF-539, > 100 µM (inactive). Moreover, the GI50 in the test on SK-MEL-28 was > 100 µM (inactive); in the test on SN12C it was > 100 µM (inactive); in the test on SNB-19, > 100 µM (inactive); in the test on SNB-75, 12.7 µM (inactive); with SR, > 100 µM (inactive); in the test on SW-620, > 100 µM (inactive). The figures for the GI50 with T47D and in the test with UACC-62 were 47.6 µM (inactive) and 44.5 µM (inactive), respectively.

In the case of `CC1(C)NC(C)(C)/C(=N\O)C(=NO)/C1=N/O`, the GI50 in the test on CAKI-1 was > 100 µM (inactive); in the test on COLO 205, > 100 µM (inactive); with HCC 2998 it was > 100 µM (inactive); in the test on HCT-15, above 100 µM; in the test on HL-60 it was > 100 µM (inactive); in the test with KM12 it was > 100 µM (inactive). Besides, the GI50 in the test with M14, in the test on MDA-MB-231, in the test with MOLT-4, in the test with NCI/ADR-RES, in the test with SF-539 and in the test with SK-MEL-28 was > 100 µM (inactive) each time. For the same compound, the GI50 with SN12C, with SNB-19, in the test on SNB-75, in the test on SR, in the test on SW-620 and with T47D was > 100 µM (inactive) each time. The GI50 with UACC-62 was > 100 µM (inactive).

As for `Cc1cc(C)n(-c2nc3ccccc3c(=O)n2-c2ccccc2)n1`, the GI50 in the test with CAKI-1 was > 100 µM (inactive); in the test with COLO 205, > 100 µM (inactive); with HCC 2998, > 100 µM (inactive); with HCT-15, above 100 µM; with HL-60, > 100 µM (inactive); in the test with M14 it was > 100 µM (inactive). For the same compound, the GI50 in the test on MDA-MB-231, in the test on MOLT-4, in the test on NCI-H522, with NCI/ADR-RES, with SF-539 and with SK-MEL-28 was > 100 µM (inactive) throughout. Also, the GI50 in the test with SN12C, in the test with SNB-19, with SNB-75, in the test with SR, with SW-620 and in the test on T47D was > 100 µM (inactive) throughout.

On to `COC(=O)/C=C/c1ccc2c(c1)CC1(Cc3ccccc3C1)C2`, for which the GI50 in the test with COLO 205 was > 100 µM (inactive); with HCC 2998 it was > 100 µM (inactive); with HCT-15 it was above 100 µM; in the test on HL-60 it was 30.5 µM (inactive); with KM12, > 100 µM (inactive); with M14 it was > 100 µM (inactive). The GI50 in the test with MDA-MB-231 was > 100 µM (inactive); with MOLT-4 it was 34.9 µM (inactive); in the test on NCI-H522, 56.9 µM (inactive); in the test on NCI/ADR-RES, > 100 µM (inactive); in the test with SF-539, > 100 µM (inactive); in the test on SN12C, > 100 µM (inactive). In addition, the GI50 in the test with SR was 32.6 µM (inactive); in the test on T47D, > 100 µM (inactive); in the test on UACC-62, 15.2 µM (inactive).

For `CC(=O)OCCOCn1cnc2c(Cl)nc(Cl)nc21`, the GI50 in the test with CAKI-1 is 0.275 µM (active); in the test with COLO 205 it was 18.6 µM (inactive); with HCC 2998, 12.2 µM (inactive); in the test with HCT-15, 3.64 µM; in the test on HL-60 it was 2.65 µM (inactive); with KM12, 18.2 µM (inactive). Moreover, the GI50 in the test on M14 is 17.1 µM (inactive); in the test with MDA-MB-231, 15.3 µM (inactive); with MOLT-4 it was 19.2 µM (inactive); in the test with NCI-H522, 2.05 µM (inactive); in the test on NCI/ADR-RES it was 24.1 µM (inactive); with SF-539, > 10 µM (inactive). In addition, the GI50 in the test on SN12C is 18.5 µM (inactive); with SNB-19, 31.2 µM (inactive); in the test on SNB-75 it was 21.5 µM (inactive); in the test on SR, 3.87 µM (inactive); with SW-620, 12.4 µM (inactive); in the test with T47D, 10 µM (inactive). Also, in the test on UACC-62, the GI50 was 16.1 µM (inactive).

As to `Cc1ccc2c(c1)C(=O)C1(C2)Cc2ccc(C)cc2C1=O`, the GI50 in the test on CAKI-1 is > 100 µM (inactive); in the test with HCC 2998, > 100 µM (inactive); in the test with HCT-15 it was above 100 µM; with HL-60, > 100 µM (inactive); in the test with M14, > 100 µM (inactive); in the test with MDA-MB-231 it was > 100 µM (inactive). For the same compound, the GI50 with MOLT-4, with NCI-H522, in the test on NCI/ADR-RES, in the test with SF-539, in the test with SNB-19 and in the test with SNB-75 was > 100 µM (inactive) in each case. Further, the GI50 in the test with SR, with SW-620 and in the test with T47D was > 100 µM (inactive) in each case.

Consider `CC(C)(C)O/N=C/c1cc(NC(=S)c2ccsc2)ccc1Cl`, for which the GI50 in the test on CAKI-1 is 16.6 µM (inactive); in the test with COLO 205, 14.9 µM (inactive); with HCC 2998 it was 14.5 µM (inactive); in the test with HCT-15, 14.6 µM; in the test with HL-60, 17.2 µM (inactive); in the test on KM12 it was 9.89 µM (inactive). Besides, the GI50 in the test on M14 was 16.7 µM (inactive); in the test with MDA-MB-231, 16.4 µM (inactive); in the test with MOLT-4 it was 5.71 µM (inactive); in the test on NCI-H522, 13.3 µM (inactive); with NCI/ADR-RES, 11.8 µM (inactive); in the test on SF-539, 18 µM (inactive). For the same compound, the GI50 with SK-MEL-28 was 16.7 µM (inactive); with SN12C, 17.1 µM (inactive); in the test on SNB-75, 23.6 µM (inactive); in the test with SR, 3.36 µM (inactive); in the test on SW-620, 17.2 µM (inactive); in the test on T47D, 4.01 µM (inactive). Moreover, in the test on UACC-62, the GI50 is 15.5 µM (inactive).

As for `N#Cc1nc(COCCOCc2ccc(F)cc2)oc1N`, the GI50 in the test on CAKI-1 was > 100 µM (inactive); in the test on COLO 205, > 100 µM (inactive); in the test with HCC 2998 it was > 100 µM (inactive); with HCT-15, above 100 µM; in the test on HL-60 it was > 100 µM (inactive); in the test on KM12, > 100 µM (inactive). In addition, the GI50 is > 100 µM (inactive) with M14; > 100 µM (inactive) with MDA-MB-231; > 100 µM (inactive) with MOLT-4; 29 µM (inactive) with NCI-H522; > 100 µM (inactive) with NCI/ADR-RES; > 100 µM (inactive) with SF-539. Further, the GI50 in the test with SK-MEL-28, with SN12C, with SNB-75, in the test with SR, in the test with SW-620 and in the test on T47D was > 100 µM (inactive) throughout. Further, the GI50 in the test with UACC-62 was > 100 µM (inactive).

With `COc1cc(OC)cc(Oc2nc3ccc(C(F)(F)F)cc3nc2-c2ccccc2)c1`, the GI50 was > 100 µM (inactive) in the test on CAKI-1; > 100 µM (inactive) in the test with COLO 205; > 100 µM (inactive) in the test on HCC 2998; above 100 µM with HCT-15; > 100 µM (inactive) in the test on HL-60; > 100 µM (inactive) with KM12. Besides, the GI50 with MDA-MB-231, in the test with MOLT-4, in the test on NCI-H522, with NCI/ADR-RES, in the test on SF-539 and with SK-MEL-28 was > 100 µM (inactive) each time. Further, the GI50 in the test on SNB-75 is > 100 µM (inactive); in the test with SR it was > 100 µM (inactive); with SW-620, > 100 µM (inactive); in the test with T47D, 28.4 µM (inactive); with UACC-62, > 100 µM (inactive).
